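96-well plates; 48 h exposure; 5 concentrations. Endpoints by linear interpolation between flanking doses. Not reached: highest tested concentration assigned. GI50 marks 50% less growth. TGI marks complete inhibition of growth.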
Key:
Experiment in all cases: NCI anticancer screen, dose series, 48 h
HS 578T breast = tested on: HS 578T breast
UO-31 renal = tested on: UO-31 renal
SNB-19 CNS = tested on: SNB-19 CNS
SF-295 CNS = tested on: SF-295 CNS
KM12 colon = tested on: KM12 colon
T-47D breast = tested on: T-47D breast
SW-620 colon = tested on: SW-620 colon
HOP-62 NSCLC = tested on: HOP-62 NSCLC
M14 melanoma = tested on: M14 melanoma
U251 CNS = tested on: U251 CNS
UACC-62 melanoma = tested on: UACC-62 melanoma
SK-OV-3 ovarian = tested on: SK-OV-3 ovarian
HCT-15 colon = tested on: HCT-15 colon
OVCAR-8 ovarian = tested on: OVCAR-8 ovarian
RPMI-8226 leukemia = tested on: RPMI-8226 leukemia
SNB-75 CNS = tested on: SNB-75 CNS
IGROV1 ovarian = tested on: IGROV1 ovarian
NCI-H23 lung = tested on: NCI-H23 lung
SN12C renal = tested on: SN12C renal
A549 NSCLC = tested on: A549 NSCLC
UACC-257 melanoma = tested on: UACC-257 melanoma
MALME-3M melanoma = tested on: MALME-3M melanoma
NCI-H522 lung = tested on: NCI-H522 lung
K-562 leukemia = tested on: K-562 leukemia
SF-539 CNS = tested on: SF-539 CNS
PC-3 prostate = tested on: PC-3 prostate
HT29 colon = tested on: HT29 colon
NCI/ADR-RES ovarian = tested on: NCI/ADR-RES ovarian
SK-MEL-28 melanoma = tested on: SK-MEL-28 melanoma
CCRF-CEM leukemia = tested on: CCRF-CEM leukemia
COLO 205 colon = tested on: COLO 205 colon
OVCAR-5 ovarian = tested on: OVCAR-5 ovarian
DU-145 prostate = tested on: DU-145 prostate
MDA-MB-435 = tested on: MDA-MB-435
SF-268 CNS = tested on: SF-268 CNS
HOP-92 NSCLC = tested on: HOP-92 NSCLC
TK-10 renal = tested on: TK-10 renal
SK-MEL-5 melanoma = tested on: SK-MEL-5 melanoma
MDA-MB-231 breast = tested on: MDA-MB-231 breast
A498 renal = tested on: A498 renal
786-0 renal = tested on: 786-0 renal
BT-549 breast = tested on: BT-549 breast
SK-MEL-2 melanoma = tested on: SK-MEL-2 melanoma
SR leukemia = tested on: SR leukemia
NCI-H460 lung = tested on: NCI-H460 lung
HL-60(TB) leukemia = tested on: HL-60(TB) leukemia
OVCAR-3 ovarian = tested on: OVCAR-3 ovarian
LOX IMVI melanoma = tested on: LOX IMVI melanoma
ACHN renal = tested on: ACHN renal
CAKI-1 renal = tested on: CAKI-1 renal
MOLT-4 leukemia = tested on: MOLT-4 leukemia
EKVX NSCLC = tested on: EKVX NSCLC
OVCAR-4 ovarian = tested on: OVCAR-4 ovarian
HCC-2998 colon = tested on: HCC-2998 colon
MCF7 breast = tested on: MCF7 breast
NCI-H226 lung = tested on: NCI-H226 lung
HCT-116 colon = tested on: HCT-116 colon
RXF 393 renal = tested on: RXF 393 renal

For `Cn1c2ccccc2c2c(-c3ccccc3)[n+]3ccccc3nc21`, the TGI (HS 578T breast) was > 100 µM, the TGI (UO-31 renal) was > 100 µM and the TGI (SNB-19 CNS) was > 100 µM. For the same molecule, the TGI (SF-295 CNS) was > 100 µM, the TGI (KM12 colon) was 32.7 µM and the TGI (T-47D breast) was > 100 µM. The TGI (SW-620 colon) was 86.9 µM, the TGI (HOP-62 NSCLC) was 68 µM and the TGI (M14 melanoma) was 34.4 µM. The TGI (U251 CNS) was 64.7 µM, the TGI (UACC-62 melanoma) was 39.3 µM and the TGI (SK-OV-3 ovarian) was > 100 µM. The TGI (HCT-15 colon) was > 100 µM, the TGI (OVCAR-8 ovarian) was > 100 µM and the TGI (RPMI-8226 leukemia) was 40.8 µM. For the same molecule, the TGI (SNB-75 CNS) was > 100 µM, the TGI (IGROV1 ovarian) was 80.9 µM and the TGI (NCI-H23 lung) was 54.1 µM. For the same molecule, the TGI (SN12C renal) was 61.6 µM, the TGI (A549 NSCLC) was > 100 µM and the TGI (UACC-257 melanoma) was 36.9 µM. The TGI (MALME-3M melanoma) was 41.6 µM, the TGI (NCI-H522 lung) was 69.7 µM and the TGI (K-562 leukemia) was > 100 µM. The TGI (SF-539 CNS) was > 100 µM, the TGI (PC-3 prostate) was > 100 µM and the TGI (HT29 colon) was > 100 µM. For the same molecule, the TGI (NCI/ADR-RES ovarian) was > 100 µM, the TGI (SK-MEL-28 melanoma) was 46.7 µM and the TGI (CCRF-CEM leukemia) was 99.8 µM. The TGI (COLO 205 colon) was > 100 µM, the TGI (OVCAR-5 ovarian) was > 100 µM and the TGI (DU-145 prostate) was > 100 µM. It also gave a TGI (MDA-MB-435) of 36.6 µM, a TGI (SF-268 CNS) of 38.8 µM and a TGI (HOP-92 NSCLC) of 39.7 µM. The TGI (TK-10 renal) was 85 µM, the TGI (SK-MEL-5 melanoma) was 33.8 µM and the TGI (MDA-MB-231 breast) was 97.5 µM. For the same molecule, the TGI (A498 renal) was > 100 µM, the TGI (786-0 renal) was 65.4 µM and the TGI (BT-549 breast) was 54.7 µM. For the same molecule, the TGI (SK-MEL-2 melanoma) was 40.4 µM, the TGI (SR leukemia) was 60.3 µM and the TGI (NCI-H460 lung) was 59.6 µM. The TGI (HL-60(TB) leukemia) was 66.6 µM, the TGI (OVCAR-3 ovarian) was 57.7 µM and the TGI (LOX IMVI melanoma) was 37.4 µM. For the same molecule, the TGI (ACHN renal) was > 100 µM, the TGI (CAKI-1 renal) was > 100 µM and the TGI (MOLT-4 leukemia) was > 100 µM. For the same molecule, the TGI (EKVX NSCLC) was > 100 µM and the TGI (OVCAR-4 ovarian) was > 100 µM.

For `C/C=C(\C)C(=O)N[C@H]1CC[C@]2(C)C3CC[C@@]4(C)C(CC[C@@H]4C(C)N(C)C)C3CCC2[C@H]1OC(C)=O` (some centres not stated), the GI50 (HS 578T breast) was 1.75 µM, the TGI (HS 578T breast) was 4.7 µM and the GI50 (UO-31 renal) was 1.24 µM. It also gave a TGI (UO-31 renal) of 2.54 µM, a GI50 (SNB-19 CNS) of 2.1 µM and a TGI (SNB-19 CNS) of 4.13 µM. The GI50 (HCC-2998 colon) was 1.56 µM, the TGI (HCC-2998 colon) was 2.97 µM and the GI50 (SF-295 CNS) was 1.88 µM. It also gave a TGI (SF-295 CNS) of 4.05 µM, a GI50 (KM12 colon) of 2 µM and a TGI (KM12 colon) of 5.15 µM. It also gave a GI50 (T-47D breast) of 1.74 µM, a TGI (T-47D breast) of 5.42 µM and a GI50 (SW-620 colon) of 1.53 µM. The TGI (SW-620 colon) was 3.05 µM, the GI50 (HOP-62 NSCLC) was 1.76 µM and the TGI (HOP-62 NSCLC) was 3.46 µM. The GI50 (M14 melanoma) was 1.85 µM, the TGI (M14 melanoma) was 3.69 µM and the GI50 (U251 CNS) was 1.55 µM. For the same molecule, the TGI (U251 CNS) was 3.56 µM, the GI50 (UACC-62 melanoma) was 1.95 µM and the TGI (UACC-62 melanoma) was 3.74 µM. It also gave a GI50 (SK-OV-3 ovarian) of 2.06 µM, a TGI (SK-OV-3 ovarian) of 4.27 µM and a GI50 (HCT-15 colon) of 0.762 µM. For the same molecule, the TGI (HCT-15 colon) was 2.4 µM, the GI50 (OVCAR-8 ovarian) was 3.38 µM and the TGI (OVCAR-8 ovarian) was > 25.8 µM. For the same molecule, the GI50 (RPMI-8226 leukemia) was 1.62 µM, the TGI (RPMI-8226 leukemia) was 4.68 µM and the GI50 (SNB-75 CNS) was 1.65 µM. For the same molecule, the TGI (SNB-75 CNS) was 3.59 µM, the GI50 (IGROV1 ovarian) was 2.38 µM and the TGI (IGROV1 ovarian) was 8.86 µM. For the same molecule, the GI50 (NCI-H23 lung) was 1.91 µM, the TGI (NCI-H23 lung) was 5.01 µM and the GI50 (SN12C renal) was 1.7 µM. The TGI (SN12C renal) was 4.26 µM, the GI50 (A549 NSCLC) was 2.07 µM and the TGI (A549 NSCLC) was 4.69 µM. The GI50 (UACC-257 melanoma) was 2.12 µM, the TGI (UACC-257 melanoma) was 4.16 µM and the GI50 (MALME-3M melanoma) was 1.91 µM. The TGI (MALME-3M melanoma) was 3.73 µM, the GI50 (MCF7 breast) was 1.27 µM and the TGI (MCF7 breast) was 2.92 µM. For the same molecule, the GI50 (NCI-H522 lung) was 2.14 µM, the TGI (NCI-H522 lung) was 5.24 µM and the GI50 (K-562 leukemia) was 0.524 µM. For the same molecule, the TGI (K-562 leukemia) was 2.17 µM, the GI50 (NCI-H226 lung) was 2.38 µM and the TGI (NCI-H226 lung) was 7.53 µM. For the same molecule, the GI50 (SF-539 CNS) was 1.16 µM, the TGI (SF-539 CNS) was 2.53 µM and the GI50 (PC-3 prostate) was 2.05 µM. It also gave a TGI (PC-3 prostate) of 6.59 µM, a GI50 (HT29 colon) of 0.362 µM and a TGI (HT29 colon) of 1.34 µM. For the same molecule, the GI50 (NCI/ADR-RES ovarian) was 3.11 µM, the TGI (NCI/ADR-RES ovarian) was 12 µM and the GI50 (SK-MEL-28 melanoma) was 1.59 µM. For the same molecule, the TGI (SK-MEL-28 melanoma) was 3.24 µM, the GI50 (CCRF-CEM leukemia) was 1.97 µM and the TGI (CCRF-CEM leukemia) was 6.19 µM. The GI50 (COLO 205 colon) was 1.59 µM, the TGI (COLO 205 colon) was 3.06 µM and the GI50 (OVCAR-5 ovarian) was 2.06 µM. The TGI (OVCAR-5 ovarian) was 5.65 µM, the GI50 (HCT-116 colon) was 1.04 µM and the TGI (HCT-116 colon) was 2.42 µM. It also gave a GI50 (DU-145 prostate) of 2.85 µM, a TGI (DU-145 prostate) of 10.9 µM and a GI50 (MDA-MB-435) of 1.13 µM. For the same molecule, the TGI (MDA-MB-435) was 2.84 µM, the GI50 (SF-268 CNS) was 1.39 µM and the TGI (SF-268 CNS) was 2.89 µM. It also gave a GI50 (HOP-92 NSCLC) of 1.24 µM, a TGI (HOP-92 NSCLC) of 3.47 µM and a GI50 (TK-10 renal) of 2.16 µM. For the same molecule, the TGI (TK-10 renal) was 4.59 µM, the GI50 (SK-MEL-5 melanoma) was 1.05 µM and the TGI (SK-MEL-5 melanoma) was 2.3 µM. The GI50 (MDA-MB-231 breast) was 1.91 µM, the TGI (MDA-MB-231 breast) was 4.02 µM and the GI50 (A498 renal) was 1.43 µM. The TGI (A498 renal) was 3.51 µM, the GI50 (786-0 renal) was 1.54 µM and the TGI (786-0 renal) was 2.95 µM. It also gave a GI50 (BT-549 breast) of 2.07 µM, a TGI (BT-549 breast) of 5.48 µM and a GI50 (RXF 393 renal) of 1.57 µM. For the same molecule, the TGI (RXF 393 renal) was 3.03 µM, the GI50 (SK-MEL-2 melanoma) was 2.29 µM and the TGI (SK-MEL-2 melanoma) was 4.48 µM. It also gave a GI50 (NCI-H460 lung) of 0.923 µM, a TGI (NCI-H460 lung) of 2.26 µM and a GI50 (HL-60(TB) leukemia) of 1.88 µM. It also gave a TGI (HL-60(TB) leukemia) of 4.52 µM, a GI50 (OVCAR-3 ovarian) of 1.59 µM and a TGI (OVCAR-3 ovarian) of 4.34 µM. It also gave a GI50 (LOX IMVI melanoma) of 1.42 µM, a TGI (LOX IMVI melanoma) of 2.78 µM and a GI50 (ACHN renal) of 1.98 µM. The TGI (ACHN renal) was 4.2 µM, the GI50 (CAKI-1 renal) was 2.11 µM and the TGI (CAKI-1 renal) was 4.86 µM. The GI50 (MOLT-4 leukemia) was 1.58 µM, the TGI (MOLT-4 leukemia) was 3.91 µM and the GI50 (EKVX NSCLC) was 2.06 µM. For the same molecule, the TGI (EKVX NSCLC) was 8.62 µM, the GI50 (OVCAR-4 ovarian) was 2.43 µM and the TGI (OVCAR-4 ovarian) was 14.6 µM.

— PubChem BioAssay (NCI)
